Consider 1 compound from patent US11564913B2, “Compositions and methods for treating cancer” (Children's Hospital Medical Center, priority 2019, dated 2023).

Data set [1] concerns CD34+ human peripheral blood cells transduced with Mieg3 empty vector. Description: Proliferation and survival of transduced CD34+ cells on OP-9 stroma. Type of data set: cell-based. The protocol: (§1) Cell proliferation was assessed by flow cytometry. (B) Cells were transduced and cultured as in (A) but incubated with either vehicle or IODVA1 (IO1, 1 or 3 μM) and survival (%) was determined by trypan blue exclusion. […] LDBM cells were transduced with bicistronic p190-BCR-ABL1/EGFP retrovirus and transplanted into recipient mice. After initial assessment of leukemic burden, drugs were delivered in subcutaneously implanted osmotic pumps, each lasting two weeks. (D) Kaplan-Meier survival plot of secondary mice transplants with the 10^6-cell dilution.
(§2) IODVA1 specifically targets BCR-ABL B-ALL cells in vitro. To confirm that IODVA1 is specific for oncogene-expressing cells, we tested its efficacy on the proliferation and survival of CD34^+ human peripheral blood mononuclear cells transduced with retroviral bicistronic p190-BCR-ABL or Mieg3 empty vector (Williams, 2000). As expected, expression of BCR-ABL increased cell proliferation (FIG. 10A). Treatment with IODVA1 (IO1, […]) decreased proliferation of BCR-ABL-transformed cells, while proliferation of empty vector Mieg3 transduced cells was not affected. We then assessed survival of p190-BCR-ABL-transformed CD34^+ cells in the presence of IODVA1 by trypan blue exclusion. The survival of p190-BCR-ABL expressing cells decreased in a dose-dependent manner to 60±16% (SEM, N=3) at 1 μM on day 5 and to 1±0.2% (SEM, N=3) at 3 μM on day 3 (FIG. 10B). Survival of empty vector-expressing cells was not affected by IODVA1.

In data set [2] the test system is CD34+ human peripheral blood cells transduced with p190-BCR-ABL. Described as above. Format: cell-based. As to the method: as §1, §2
Data set [3] has as its target Vav3 binding to Rac in p190-BCR-ABL Ba/F3 cells (Mus musculus, UniProt Q9R0C8). The data set is described as follows: GST-Rac pull-down, immunoblot for pVav3. Type of data set: cell-based, murine. Conditions: 3 μM, 30 min. The protocol:
(§3) FIG. 14: IODVA1 targets Vav3 in vitro and in vivo. (A) Ba/F3 cells expressing empty vector Mieg3 or p190-BCR-ABL1 were treated with vehicle control or IODVA1 (IO1, 3 μM) for 30 min and incubated with GST-Rac and glutathione beads. Beads were washed and the protein complexes were separated on SDS-PAGE and immunoblotted for pVav3. Input Vav3 was used as control. (B) Binding affinity (Kd) between IODVA1 and Vav3 (green), LARG (brown), and RacGDP (blue). […] Error bars=SD; N=3. (C) Quantification of the average number of colonies made by bone marrow wild-type (black) and Vav3^−/− (lilac) p190-BCR-ABL1 leukemic cells treated with vehicle control or IODVA1 (IO1, 1 and 3 μM) (* p≤0.05; ** p≤0.01; *** p≤0.001; ns, not significant). (D) Representative histogram data of the cell cycle analysis of wild-type (black and grey bars) and Vav3^−/− (dark and light lilac) bone marrow cells expressing p190-BCR-ABL and treated with vehicle control or IODVA1 (IO1, 3 μM) for 20 h. (E) Quantification by densitometry of the pVav3 band from FIG. 14A. […]
(§4) Rac activity and signaling is regulated by GAPs, GDIs, and RacGEFs. […] The pull-down protein complex was separated on SDS-PAGE and immunoblotted for pVav3 and Vav3 and quantified (FIGS. 14A & 14E). […]

In data set [4] the target is Vav3 binding to Rac in empty vector Ba/F3 cells (Mus musculus, UniProt Q9R0C8). The data set is described as follows: GST-Rac pull-down, immunoblot for pVav3. Type of data set: cell-based, murine. Conditions: 3 μM, 30 min. The protocol:
as §3, §4

The test system of data set [5] is murine colon adenocarcinoma MC38 tumors. The data set is described as follows: MC38 colon adenocarcinoma mouse model. Type of data set: in vivo, mice. As to the method: FIG. 21: NIRA2 inhibits tumor growth of murine colon adenocarcinoma xenografts. […] Animals began treatment with vehicle, IODVA1, or NIRA2 (N=10 per group) when tumors reached 100-200 mm^3 in volume (day 12 post-injection) and received treatment 5 times per week for two weeks. Representative pictures of the spleens and extracted tumors are shown.
The in vivo efficacy of NIRA2 was tested against a xenograft mouse model generated with the murine colon adenocarcinoma MC38 cells. Cells were injected subcutaneously in the flank of a hind leg. Each injection contained one million cells of Matrigel+MC38 in a volume of […]. Tumors were calipered until an average size of 100-200 mm^3 is reached. Animals were sorted in into treatment groups (N=10) and administered (5× a week) by IP 250 μL of a PBS solution containing vehicle control, IODVA1 (1 mM), or NIRA2 (0.5 mM). Treatments lasted 2 weeks Animals were euthanized as tumor size reached 2 cm^3 or at the end of the study. Tumors were measured daily and mice weighed 3 times a week.

Sequence of Vav3 binding to Rac in p190-BCR-ABL Ba/F3 cells (Q9R0C8 whole entry): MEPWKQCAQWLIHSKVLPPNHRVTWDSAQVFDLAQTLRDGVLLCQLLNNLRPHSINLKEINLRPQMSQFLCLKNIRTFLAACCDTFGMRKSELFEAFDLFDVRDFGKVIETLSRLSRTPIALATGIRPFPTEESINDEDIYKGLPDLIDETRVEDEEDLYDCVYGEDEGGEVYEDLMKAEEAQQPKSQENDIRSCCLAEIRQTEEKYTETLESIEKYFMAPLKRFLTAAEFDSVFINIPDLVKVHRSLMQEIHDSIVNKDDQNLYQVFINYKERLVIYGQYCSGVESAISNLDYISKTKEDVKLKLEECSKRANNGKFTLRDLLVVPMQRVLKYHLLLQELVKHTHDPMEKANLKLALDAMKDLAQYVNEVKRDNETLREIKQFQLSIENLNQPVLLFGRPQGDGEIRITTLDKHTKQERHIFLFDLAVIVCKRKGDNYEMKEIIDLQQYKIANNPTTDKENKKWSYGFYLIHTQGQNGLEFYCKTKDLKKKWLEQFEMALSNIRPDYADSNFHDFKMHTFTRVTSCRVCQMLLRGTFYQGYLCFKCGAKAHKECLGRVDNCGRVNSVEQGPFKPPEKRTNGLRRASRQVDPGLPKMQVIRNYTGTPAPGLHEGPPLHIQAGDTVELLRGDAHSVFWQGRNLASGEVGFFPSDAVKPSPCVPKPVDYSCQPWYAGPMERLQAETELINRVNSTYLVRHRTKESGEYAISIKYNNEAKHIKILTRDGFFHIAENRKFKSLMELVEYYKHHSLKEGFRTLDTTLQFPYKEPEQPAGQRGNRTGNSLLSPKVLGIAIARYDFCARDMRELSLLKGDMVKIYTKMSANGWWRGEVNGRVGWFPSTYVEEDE
Sequence of Vav3 binding to Rac in empty vector Ba/F3 cells (Q9R0C8 whole entry): as above

For the compound `OC1(c2ccccn2)N=C(Nc2nc3ccccc3[nH]2)N=C1c1ccccn1` (stereo not drawn) [IODVA1, (Z)-2-((1H-benzo[d]imidazol-2-yl)imino)-4,5-di(pyridin-2-yl)-2,5-dihydro-1H-imidazol-5-ol], the proliferation result in data set [1] was “not affected”; in data set [2] (IODVA1 (IO1, μM)), “decreased”. The survival result in data set [1] (1 or 3 μM) is listed as “not affected”. For the same compound, the “survival, trypan blue exclusion” value in data set [2] (1 μM, day 5 (SEM, N=3)) came to 60±16%; in data set [2] (3 μM, day 3 (SEM, N=3)), 1±0.2%. Moreover, the “decrease in intensity of pVav3 band bound to Rac” value in data set [3] is given as 8 times. Moreover, the “Vav3 or pVav3 bound to Rac” value in data set [4] is “no significant change”. In addition, the “tumor growth and tumor volumes” value in data set [5] (IP 250 μL of 1 mM, 5× a week, 2 weeks) is on record as “significantly reduced”. Moreover, the effect on spleen entry in data set [5] (end of the study) is on record as “did not notice any effect”.
